Experimental data from publication PMC5267425, “Identification of small molecule modulators of HIV-1 Tat and Rev protein accumulation” (Retrovirology, 2017).

Key:
Type in all cases: cell-based
HIV-1 Tat = experiment: Tat protein decay in the presence of cycloheximide; conditions: cycloheximide 10 µg/ml (Figure S4)
Description: (§1) To assess effect of compounds on HIV-1 Tat stability, the decay of HIV-1 Tat levels was compared between DMSO-treated and compound-treated protein lysates in the presence of cycloheximide. In the first set of experiments, HIV-1 gene expression was induced with doxycylin (dox) for 24 h then 10 μg/mL cycloheximide was added to block new protein synthesis in combination with either DMSO or the compounds. Cells were harvested every 2 h and Tat protein levels measured by western blot. Quantification of the relative intensity of the detected bands was performed using ImageLab software (BioRad) and normalized to corresponding bands of the loading control (GAPDH) from at least three independent experiments. To determine whether the compounds’ effect on HIV-1 gene expression could be reversed by inhibition of the proteasome, compound treatment assay was performed as previously described with the addition of 10 μM MG132 (Sigma-Aldrich) to compound-treated cells 8 h prior to harvesting. Equal amounts of protein were run on 13 or 14% gels by SDS-PAGE, blotted and probed with antibodies for Tat and GAPDH. Quantification of the relative intensity of the detected bands was performed using ImageLab software (BioRad) and normalized to corresponding bands of the loading control (GAPDH) from at least three independent experiments.

HIV-1 US RNA = experiment: FISH of HIV-1 US RNA and GagGFP in HeLa rtTA HIV GagGFP C7 cells; conditions: 791 30 µM, 833 2 µM, 892 15 µM
Description: Changes in HIV-1 US RNA subcellular distribution in response to compound treatment was analyzed by fluorescent in situ hybridization in HeLa HIVrtTA GagGFP cells, as described by Wong et al.. Following washing to remove unbound probe, nuclei were stained with DAPI and images were acquired using a Leica DMR microscope at 630× magnification.

[1] = test system: HIV-1 Tat (p14, p16) and Gag; experiment: Rescue of Tat/Gag expression by proteasome inhibitor MG132; conditions: MG132 10 μM for 8 h in the presence of compound
Description: as §1

[2] = test system: total protein synthesis in HeLa HIVrtTA∆Mls cells; experiment: SUnSET total protein synthesis; conditions: doses that significantly reduced HIV-1 protein expression, ∓Dox
Description: The effect of the compounds on nascent protein synthesis was measured by surface sensing of translation (SUnSET) as described by Schmidt et al.. Cells were incubated with puromycin, an aminoacyl tRNA analog, to allow puromycin incorporation into newly translated peptides and prevention of further ribosomal elongation by chain termination. To assess the effect of the compounds on protein translation, cells were prepared and treated as described above, but were incubated with 10 μg/mL of puromycin for a period of 30 min prior to harvesting cell lysates for protein analysis. Protein concentration of cell lysates was quantified by Bradford assay and equal amounts of protein (30–35 μg) was run on either 10% or 4–15% (gradient) gels. Following transfer to PVDF (BioRad), blots were probed with mouse monoclonal antibody to puromycin (anti-12D10, EMD Millipore). Blots were developed using ECL Plus (Perkin-Elmer) or Clarity (BioRad) and imaged using the ChemiDoc MP Imager (BioRad). To quantify the levels of protein synthesis, the volume intensity in each lane of compound-treated sample was calculated relative to the DMSO-treated sample and normalized to GAPDH loading control using ImageLab software (BioRad) from at least four independent experiments.

HIV-1 MS RNA isoforms = experiment: RT-PCR of splice site usage within HIV-1 MS RNA; conditions: for decrease in levels of Rev1/2 and Nef RNAs relative to DMSO / increase of Tat1 and Tat2 RNAs relative to DMSO: 833 2 µM, 892 15 µM
Description: The effect of compound treatment on splice site selection within the HIV-1 MS RNA class was analyzed by radioactive RT-PCR as described previously. Radioactive reaction products were resolved on 6% denaturing polyacrylamide gels (8 M Urea, 1xTBE) and detection using a Typhoon 9400 PhosphorImager (Amersham). Gel densitometry was performed using ImageJ software (NIH) to calculate mRNA levels of HIV-1 MS mRNA isoforms, measured as the density of an individual isoform divided by the total density of all visible viral RNA species in a sample.

[3] = Viable cell count by FSC/SSC gate, CEM-GXR; conditions: human, CEM-GXR cells infected with a Clade B HIV-1 strain
Description: To assess the activity of compounds against HIV-1 strains having resistance to various ART drugs, assays were performed in the context of CEM-GXR cells. These cells express CD4, CXCR4, and coreceptor, CCR5 as well as an exogenous Tat-driven LTR-GFP expression cassette. Cultures were infected with different HIV-1 strains of interest, differing on their subtypes (A and B), and resistance to three major drug targets (reverse transcriptase, protease, and integrase). The culture contains serial dilutions of the molecule in the final concentrations from 0.156 to 5 μM for 833; 725 nM to 46.87 μM for 791; 1.95 to 62.5 μM for 892. Antiviral activity was evaluated in the assay by measuring inhibition of HIV-1 spread in a coculture of CEM-GXR cells containing 1% of HIV-1 infected (GFP positive) cells using flow cytometric analysis (GuavaSoft 2.2 software, Guava HT8, Millipore). To estimate the viable cell counts, the gate in a flow cytometer (Guava HT8) was set to cover 95% of the freshly passaged uninfected CEM-GXR cell or using ViaCount™. The same parameter was employed to gate viable cells in the inhibition assay and the number of gated cells was obtained by GuavaSoft 2.2 software. For assays using ViaCount™, sample acquisition and data analysis were performed with the selection of EasyFit analysis feature using the ViaCount™ software module.

Compound	half-life of HIV-1 Tat relative to DMSO (HIV-1 Tat)	GagGFP levels relative to DMSO (HIV-1 US RNA)	cytoplasmic accumulation of HIV-1 US RNA (HIV-1 US RNA)	accumulation of both Tat isoforms on addition of MG132 [1]	reduction in protein synthesis relative to DMSO [2]	splice site usage within MS RNA relative to control (HIV-1 MS RNA isoforms; 30 µM, 24 h)	CC50 [3]	decrease in levels of Rev1/2 and Nef RNAs relative to DMSO (HIV-1 MS RNA isoforms)	increase of Tat1 and Tat2 RNAs relative to DMSO (HIV-1 MS RNA isoforms)
Cc1cc(NCc2cccnc2)n2ncc(-c3ccc(Cl)cc3)c2n1 [Compound 791, 3-(4-chlorophenyl)-5-methyl-N-(3-pyridinylmethyl)pyrazolo[1,5-a]pyrimidin-7-amine]	do not alter	reduced	prevented cytoplasmic accumulation	significant accumulation	little or no effect	No significant changes	> 12 µM	–	–
COc1ccc(C=NNC(=O)c2ccccc2O)cc1O [Compound 892, 2-hydroxy-N′-(3-hydroxy-4-methoxybenzylidene)benzohydrazide]	do not alter	reduced	prevented cytoplasmic accumulation	significant accumulation	~ 25%	–	31 µM	~ 30%	< 10%
O=C(NC(=S)NNC(=O)c1ccccc1O)c1ccc(-c2ccccc2)cc1 [Compound 833, N-([2-(2-hydroxybenzoyl)hydrazino]carbonothioyl}-4-biphenylcarboxamide]	do not alter	reduced	prevented cytoplasmic accumulation	significant accumulation	little or no effect	–	> 5 µM	~ 30%	< 10%
